Source: patent US20220257540A1, “COMPOSITIONS AND METHODS FOR TREATMENT OF HEPATITIS B VIRUS INFECTION” (ANHUI RONGHANG BIOTECH DEVELOPMENT CO., LTD., priority 2019, published 2022)
Where two headings read alike, the source gives them in different places.

Experiments:
[1] = system: liver fibrosis; details: rats with carbon tetrachloride induced cirrhosis; cited from earlier work
[2] = system: HBV GT C; assay: In vitro anti-HBV efficacy in HBV-infected PXB-cells; assay type: cell-based; details: for Extracellular HBV DNA / Extracellular HBsAg / Intracellular HBV DNA / Intracellular cccDNA / anti-HBV efficacy: Day 27; for Extracellular HBeAg: Day 27, 10 fold diluted sample; for anti-HBV efficacy: HBV-infected PXB-cells
Protocol: Materials & Methods: PXB-cells was infected with HBV GT C. […] The anti-HBV therapeutic efficacy was measured by the analysis of extracellular HBV DNA, HBsAg, HBeAg, h-Alb, and intracellular HBV DNA/cceDNA levels. Entecavir was used as the positive control. The hepatocytes isolated from 3 mice were combined to seed culture plate. The cell density of mixed cell was 7.37×10^6 cells/mL. PXB-cells® are the fresh hepatocytes which are isolated from PXB-mice. Cells viability after isolation: >80%. Donor Hepatocytes were purchased from Corning, Incorporated (Tewksbury, Mass., USA), Lot: BD195 ([…]). […] Entecavir was purchased from Santa-cruz, Lot: 10914, Concentration: 1 mM. Plates was observed under microscopy and photographed.

[3] = system: HBV-related postnecrotic cirrhosis; details: double-blind controlled trial, 100 patients; cited from earlier work
[4] = system: chronic Hepatitis B; details: 1 mg a day orally for 5 days-a-week over 6 months, cited from earlier work
[5] = cited from earlier work; for Peak blood level (Cmax) / Exposure (area under the curve) / terminal half-life: fasted healthy volunteers; for mean Cmax: healthy adults, capsules orally
[6] = ingested more than 0.8 mg/kg; cited from earlier work
[7] = molecular target: P-gp (Homo sapiens, UniProt P08183); details: cited from earlier work
Sequence of P-gp (P08183 whole entry): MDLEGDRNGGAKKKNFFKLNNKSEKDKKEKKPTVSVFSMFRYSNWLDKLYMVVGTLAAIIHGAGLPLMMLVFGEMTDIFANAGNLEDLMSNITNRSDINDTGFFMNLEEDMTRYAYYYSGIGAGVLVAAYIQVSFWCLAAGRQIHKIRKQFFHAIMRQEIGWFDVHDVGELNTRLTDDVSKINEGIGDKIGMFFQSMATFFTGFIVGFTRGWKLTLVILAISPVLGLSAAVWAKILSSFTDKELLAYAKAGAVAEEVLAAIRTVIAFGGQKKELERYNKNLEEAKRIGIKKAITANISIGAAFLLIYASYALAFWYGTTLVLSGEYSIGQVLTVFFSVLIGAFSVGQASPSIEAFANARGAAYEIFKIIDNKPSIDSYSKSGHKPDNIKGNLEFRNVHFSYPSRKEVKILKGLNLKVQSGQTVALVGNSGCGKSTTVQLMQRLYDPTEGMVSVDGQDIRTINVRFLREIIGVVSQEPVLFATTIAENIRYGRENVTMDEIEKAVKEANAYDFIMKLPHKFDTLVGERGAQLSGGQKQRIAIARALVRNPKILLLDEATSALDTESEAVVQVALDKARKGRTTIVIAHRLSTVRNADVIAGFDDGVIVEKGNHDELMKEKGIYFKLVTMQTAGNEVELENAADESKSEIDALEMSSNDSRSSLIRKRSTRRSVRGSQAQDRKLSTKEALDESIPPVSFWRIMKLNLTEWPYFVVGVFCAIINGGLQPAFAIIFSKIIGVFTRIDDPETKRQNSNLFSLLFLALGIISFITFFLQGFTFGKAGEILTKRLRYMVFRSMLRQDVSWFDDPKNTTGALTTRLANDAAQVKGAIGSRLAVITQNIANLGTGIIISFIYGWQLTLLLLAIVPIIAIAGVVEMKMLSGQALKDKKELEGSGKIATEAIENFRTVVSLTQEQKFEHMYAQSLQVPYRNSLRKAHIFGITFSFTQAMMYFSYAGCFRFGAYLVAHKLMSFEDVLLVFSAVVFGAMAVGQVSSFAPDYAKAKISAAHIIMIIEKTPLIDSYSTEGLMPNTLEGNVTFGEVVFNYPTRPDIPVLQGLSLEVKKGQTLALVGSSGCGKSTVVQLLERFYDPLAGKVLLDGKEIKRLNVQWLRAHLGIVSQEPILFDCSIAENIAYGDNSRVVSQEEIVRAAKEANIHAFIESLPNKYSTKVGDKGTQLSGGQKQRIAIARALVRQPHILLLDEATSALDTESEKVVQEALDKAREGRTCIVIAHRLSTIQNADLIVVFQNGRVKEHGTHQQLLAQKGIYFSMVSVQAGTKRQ

Compound: COc1cc2c(c(OC)c1OC)-c1ccc(OC)c(=O)cc1[C@@H](NC(C)=O)CC2 [Colchicine, N [5,6,7,9-tetrahydro-1,2,3,10-tetratmethoxy 9-oxobenzo[a]heptalen-7-yl], (S)-acetamide]
- liver fibrosis [1]: decrease liver fibrosis
- Extracellular HBV DNA ([2]; Colchicine 1 nM): 7.06 Log copies/mL
- Extracellular HBsAg ([2]; Colchicine 1 nM): 23.1 IU/mL
- Intracellular HBV DNA ([2]; Colchicine 1 nM): 250511 copies/100 ng DNA
- Intracellular cccDNA ([2]; Colchicine 1 nM): 217 copies/100 ng DNA
- Extracellular HBeAg ([2]; Colchicine 1 nM): 14.7 C.O.I
- Extracellular HBV DNA ([2]; Colchicine 2 nM): 7.06 Log copies/mL
- Extracellular HBsAg ([2]; Colchicine 2 nM): 23.5 IU/mL
- Intracellular HBV DNA ([2]; Colchicine 2 nM): 235131 copies/100 ng DNA
- Intracellular cccDNA ([2]; Colchicine 2 nM): 207 copies/100 ng DNA
- Extracellular HBeAg ([2]; Colchicine 2 nM): 16.2 C.O.I
- Extracellular HBV DNA ([2]; Colchicine 3.9 nM): 7.16 Log copies/mL
- Extracellular HBsAg ([2]; Colchicine 3.9 nM): 26.7 IU/mL
- Intracellular HBV DNA ([2]; Colchicine 3.9 nM): 282895 copies/100 ng DNA
- Intracellular cccDNA ([2]; Colchicine 3.9 nM): 247 copies/100 ng DNA
- Extracellular HBeAg ([2]; Colchicine 3.9 nM): 19.2 C.O.I
- Extracellular HBV DNA ([2]; Colchicine 7.8 nM): 7.06 Log copies/mL
- Extracellular HBsAg ([2]; Colchicine 7.8 nM): 25.5 IU/mL
- Intracellular HBV DNA ([2]; Colchicine 7.8 nM): 270324 copies/100 ng DNA
- Intracellular cccDNA ([2]; Colchicine 7.8 nM): 227 copies/100 ng DNA
- Extracellular HBeAg ([2]; Colchicine 7.8 nM): 17.4 C.O.I
- Extracellular HBV DNA ([2]; Colchicine 15.6 nM): 6.86 Log copies/mL
- Extracellular HBsAg ([2]; Colchicine 15.6 nM): 25.2 IU/mL
- Intracellular HBV DNA ([2]; Colchicine 15.6 nM): 256994 copies/100 ng DNA
- Intracellular cccDNA ([2]; Colchicine 15.6 nM): 261 copies/100 ng DNA
- Extracellular HBeAg ([2]; Colchicine 15.6 nM): 16.3 C.O.I
- Extracellular HBV DNA ([2]; Colchicine 31.3 nM): 6.06 Log copies/mL
- Extracellular HBsAg ([2]; Colchicine 31.3 nM): 2.17 IU/mL
- Intracellular HBV DNA ([2]; Colchicine 31.3 nM): 52249 copies/100 ng DNA
- Intracellular cccDNA ([2]; Colchicine 31.3 nM): 80 copies/100 ng DNA
- Extracellular HBeAg ([2]; Colchicine 31.3 nM): 3.6 C.O.I
- Extracellular HBV DNA ([2]; Colchicine 62.5 nM): 4.86 Log copies/mL
- Extracellular HBsAg ([2]; Colchicine 62.5 nM): 0.12 IU/mL
- Intracellular HBV DNA ([2]; Colchicine 62.5 nM): 9638 copies/100 ng DNA
- Intracellular cccDNA ([2]; Colchicine 62.5 nM): +
- Extracellular HBeAg ([2]; Colchicine 62.5 nM): 0.7 C.O.I
- Extracellular HBV DNA ([2]; Colchicine 125 nM): 4.86 Log copies/mL
- Extracellular HBsAg ([2]; Colchicine 125 nM): <0.05 IU/mL
- Intracellular HBV DNA ([2]; Colchicine 125 nM): 8341 copies/100 ng DNA
- Intracellular cccDNA ([2]; Colchicine 125 nM): +
- Extracellular HBeAg ([2]; Colchicine 125 nM): 0.3 C.O.I
- Extracellular HBV DNA ([2]; Colchicine 250 nM): 4.86 Log copies/mL
- Extracellular HBsAg ([2]; Colchicine 250 nM): <0.05 IU/mL
- Intracellular HBV DNA ([2]; Colchicine 250 nM): 9187 copies/100 ng DNA
- Intracellular cccDNA ([2]; Colchicine 250 nM): +
- Extracellular HBeAg ([2]; Colchicine 250 nM): 0.2 C.O.I
- Extracellular HBV DNA ([2]; Colchicine 500 nM): 4.86 Log copies/mL
- Extracellular HBsAg ([2]; Colchicine 500 nM): <0.05 IU/mL
- Intracellular HBV DNA ([2]; Colchicine 500 nM): 9019 copies/100 ng DNA
- Intracellular cccDNA ([2]; Colchicine 500 nM): +
- Extracellular HBeAg ([2]; Colchicine 500 nM): 0.2 C.O.I
- Extracellular HBV DNA ([2]; Colchicine 1000 nM): 4.86 Log copies/mL
- Extracellular HBsAg ([2]; Colchicine 1000 nM): <0.05 IU/mL
- Intracellular HBV DNA ([2]; Colchicine 1000 nM): 8717 copies/100 ng DNA
- Intracellular cccDNA ([2]; Colchicine 1000 nM): 29 copies/100 ng DNA
- Extracellular HBeAg ([2]; Colchicine 1000 nM): 0.2 C.O.I
- anti-HBV efficacy [2]: anti-HBV efficacy in a dose dependent manner
- effect in the treatment of HBV-related postnecrotic cirrhosis [3]: no effect
- patients failed (response rate) ([4]; pilot study): 3 of 7
- sustained response, treated patients ([4]; two-center trial, 4 of 6 treated patients): 66.6%
- Peak blood level (Cmax) ([5]; high-dose (1.2 mg followed by 0.6 mg every hour for 6 h; 4.8 mg total)): 6.84 ng/mL
- Exposure (area under the curve) ([5]; high-dose (4.8 mg total)): 118.2 ng/h/mL
- terminal half-life ([5]; high-dose (4.8 mg total)): 31.4 h
- Peak blood level (Cmax) ([5]; low-dose (1.2 mg followed by 0.6 mg in 1 h; 1.8 mg total)): 6.19 ng/mL
- Exposure (area under the curve) ([5]; low-dose (1.8 mg total)): 52.1 ng/h/mL
- terminal half-life ([5]; low-dose (1.8 mg total)): 23.6 h
- Exposure (area under the curve) ([5]; single dose (0.6 mg)): 14.1 ng/h/mL
- terminal half-life ([5]; single dose (0.6 mg)): 6.36 h
- mean Cmax ([5]; 0.6 mg single dose): 3 ng/mL
- mean Cmax ([5]; 1.0 mg single dose): 6.50 ± 1.03 ng/mL
- Absolute bioavailability ([5]; human, in vivo): approximately 45%
- mortality [6]: 100%

Compound: C=C1[C@H](CO)[C@@H](O)C[C@@H]1n1cnc2c(=O)[nH]c(N)nc21 [Entecavir]
- Extracellular HBV DNA ([2]; Entecavir 9.8 pM): 6.36 Log copies/mL
- Extracellular HBsAg ([2]; Entecavir 9.8 pM): 16.0 IU/mL
- Intracellular HBV DNA ([2]; Entecavir 9.8 pM): 91546 copies/100 ng DNA
- Intracellular cccDNA ([2]; Entecavir 9.8 pM): 125 copies/100 ng DNA
- Extracellular HBeAg ([2]; Entecavir 9.8 pM): 11.6 C.O.I
- Extracellular HBV DNA ([2]; Entecavir 19.5 pM): 5.76 Log copies/mL
- Extracellular HBsAg ([2]; Entecavir 19.5 pM): 14.2 IU/mL
- Intracellular HBV DNA ([2]; Entecavir 19.5 pM): 53766 copies/100 ng DNA
- Intracellular cccDNA ([2]; Entecavir 19.5 pM): 82 copies/100 ng DNA
- Extracellular HBeAg ([2]; Entecavir 19.5 pM): 10.0 C.O.I
- Extracellular HBV DNA ([2]; Entecavir 39.1 pM): 5.06 Log copies/mL
- Extracellular HBsAg ([2]; Entecavir 39.1 pM): 12.2 IU/mL
- Intracellular HBV DNA ([2]; Entecavir 39.1 pM): 30701 copies/100 ng DNA
- Intracellular cccDNA ([2]; Entecavir 39.1 pM): 69 copies/100 ng DNA
- Extracellular HBeAg ([2]; Entecavir 39.1 pM): 8.1 C.O.I
- Extracellular HBV DNA ([2]; Entecavir 78.1 pM): 4.66 Log copies/mL
- Extracellular HBsAg ([2]; Entecavir 78.1 pM): 15.7 IU/mL
- Intracellular HBV DNA ([2]; Entecavir 78.1 pM): 14257 copies/100 ng DNA
- Intracellular cccDNA ([2]; Entecavir 78.1 pM): 82 copies/100 ng DNA
- Extracellular HBeAg ([2]; Entecavir 78.1 pM): 9.8 C.O.I
- Extracellular HBV DNA ([2]; Entecavir 156.3 pM): 4.56 Log copies/mL
- Extracellular HBsAg ([2]; Entecavir 156.3 pM): 15.1 IU/mL
- Intracellular HBV DNA ([2]; Entecavir 156.3 pM): 5620 copies/100 ng DNA
- Intracellular cccDNA ([2]; Entecavir 156.3 pM): 61 copies/100 ng DNA
- Extracellular HBeAg ([2]; Entecavir 156.3 pM): 9.6 C.O.I
- Extracellular HBV DNA ([2]; Entecavir 312.5 pM): 4.46 Log copies/mL
- Extracellular HBsAg ([2]; Entecavir 312.5 pM): 14.3 IU/mL
- Intracellular HBV DNA ([2]; Entecavir 312.5 pM): 3752 copies/100 ng DNA
- Intracellular cccDNA ([2]; Entecavir 312.5 pM): 34 copies/100 ng DNA
- Extracellular HBeAg ([2]; Entecavir 312.5 pM): 9.4 C.O.I
- Extracellular HBV DNA ([2]; Entecavir 625 pM): 4.46 Log copies/mL
- Extracellular HBsAg ([2]; Entecavir 625 pM): 13.0 IU/mL
- Intracellular HBV DNA ([2]; Entecavir 625 pM): 2954 copies/100 ng DNA
- Intracellular cccDNA ([2]; Entecavir 625 pM): +
- Extracellular HBeAg ([2]; Entecavir 625 pM): 8.9 C.O.I
- Extracellular HBV DNA ([2]; Entecavir 1.25 nM): 4.46 Log copies/mL
- Extracellular HBsAg ([2]; Entecavir 1.25 nM): 11.2 IU/mL
- Intracellular HBV DNA ([2]; Entecavir 1.25 nM): 3031 copies/100 ng DNA
- Intracellular cccDNA ([2]; Entecavir 1.25 nM): +
- Extracellular HBeAg ([2]; Entecavir 1.25 nM): 6.9 C.O.I
- Extracellular HBV DNA ([2]; Entecavir 5 nM): 4.26 Log copies/mL
- Extracellular HBsAg ([2]; Entecavir 5 nM): 10.9 IU/mL
- Intracellular HBV DNA ([2]; Entecavir 5 nM): 2974 copies/100 ng DNA
- Intracellular cccDNA ([2]; Entecavir 5 nM): 33 copies/100 ng DNA
- Extracellular HBeAg ([2]; Entecavir 5 nM): 7.1 C.O.I
- Extracellular HBV DNA ([2]; Entecavir 10 nM): 4.46 Log copies/mL
- Extracellular HBsAg ([2]; Entecavir 10 nM): 11.6 IU/mL
- Intracellular HBV DNA ([2]; Entecavir 10 nM): 2936 copies/100 ng DNA
- Intracellular cccDNA ([2]; Entecavir 10 nM): +
- Extracellular HBeAg ([2]; Entecavir 10 nM): 7.4 C.O.I
- anti-HBV efficacy [2]: anti-HBV efficacy in a dose dependent manner

Compound: CCOC/C=C/c1ccc(-c2nc(-c3ccc(NC(C)C)cc3)c(-c3ccc(NC(C)C)cc3)[nH]2)cc1 [OC144093, 4-[2-[4-[(E)-3-ethoxyprop-1-enyl]phenyl]-4-[4-(propan-2-ylamino)phenyl]-1H-imidazol-5-yl]-N-propan-2-ylaniline]
- potency relative to the first and second-generation P-gp inhibitors [7]: about 10 fold

Compound: COc1cc2c(cc1OC)CN(CCc1ccc(NC(=O)c3cc(OC)c(OC)cc3NC(=O)c3cnc4ccccc4c3)cc1)CC2 [XR9576, N-[2-[[4-[2-(6,7-Dimethoxy-3,4-dihydro-1H-isoquinolin-2-yl)ethyl]phenyl]c-arbamoyl]-4,5-dimethoxyphenyl]quinoline-3-carboxamide]
- potency relative to the first and second-generation P-gp inhibitors [7]: about 10 fold
